In ChEMBL document CHEMBL1201862, “PubChem BioAssay data set” (2004):
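Method: 48-hour compound exposure of cells in 96-well plates, five concentrations, linear interpolation of endpoints. GI50: concentration for 50% inhibition of growth.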 Active and inactive are the calls of the source. Cut-off read from the data, not from the text of the source: active = GI50 up to about 1.1 µM and inactive = higher.

Columns and labels:
Assay in all cases: inhibition of tumour cell growth, NCI panel, 48 h
HCT-15 = tested on: HCT-15
SK-MEL-5 = tested on: SK-MEL-5
NCI-H460 = tested on: NCI-H460
UACC-62 = tested on: UACC-62
CCRF-CEM = tested on: CCRF-CEM
KM12 = tested on: KM12
A549 = tested on: A549
SW-620 = tested on: SW-620
SNB-19 = tested on: SNB-19
HCC 2998 = tested on: HCC 2998
TK-10 = tested on: TK-10
DU-145 = tested on: DU-145
NCI-H522 = tested on: NCI-H522
NCI-H23 = tested on: NCI-H23
COLO 205 = tested on: COLO 205
OVCAR-8 = tested on: OVCAR-8
MCF7 = tested on: MCF7
UO-31 = tested on: UO-31
HL-60 = tested on: HL-60
SK-OV-3 = tested on: SK-OV-3
SN12C = tested on: SN12C
BT-549 = tested on: BT-549
EKVX = tested on: EKVX
MOLT-4 = tested on: MOLT-4
ACHN = tested on: ACHN
OVCAR-4 = tested on: OVCAR-4
OVCAR-3 = tested on: OVCAR-3
HT-29 = tested on: HT-29
LOX IMVI = tested on: LOX IMVI
SR = tested on: SR
SF-295 = tested on: SF-295
SF-539 = tested on: SF-539
OVCAR-5 = tested on: OVCAR-5
RXF 393 = tested on: RXF 393
SK-MEL-28 = tested on: SK-MEL-28
NCI/ADR-RES = tested on: NCI/ADR-RES
K562 = tested on: K562
HCT-116 = tested on: HCT-116
M14 = tested on: M14
NCI-H226 = tested on: NCI-H226
Malme-3M = tested on: Malme-3M
HOP-92 = tested on: HOP-92
Hs-578T = tested on: Hs-578T
RPMI-8226 = tested on: RPMI-8226
UACC-257 = tested on: UACC-257
CAKI-1 = tested on: CAKI-1
MDA-N = tested on: MDA-N
MDA-MB-435 = tested on: MDA-MB-435
A498 = tested on: A498
IGROV-1 = tested on: IGROV-1
SF-268 = tested on: SF-268
MDA-MB-231 = tested on: MDA-MB-231
786-0 = tested on: 786-0
PC-3 = tested on: PC-3
HOP-62 = tested on: HOP-62
T47D = tested on: T47D
U-251 = tested on: U-251
SNB-75 = tested on: SNB-75
SK-MEL-2 = tested on: SK-MEL-2

Measured: GI50

COc1cc(C(C)O)c(S(=O)(=O)CC(C)O)nn1 (stereo not drawn)
> 100 µM: HCT-15
inactive: SK-MEL-5 > 100 µM | NCI-H460 > 100 µM | UACC-62 > 100 µM | CCRF-CEM > 100 µM | KM12 > 100 µM | A549 > 100 µM | SW-620 > 100 µM | SNB-19 > 100 µM | HCC 2998 > 100 µM | TK-10 > 100 µM | DU-145 > 100 µM | NCI-H522 > 100 µM | NCI-H23 > 100 µM | COLO 205 > 100 µM | OVCAR-8 > 100 µM | MCF7 > 100 µM | UO-31 > 100 µM | HL-60 > 100 µM | SK-OV-3 > 100 µM | SN12C > 100 µM | BT-549 > 100 µM | EKVX 75.5 µM | MOLT-4 77.4 µM | ACHN > 100 µM | OVCAR-4 > 100 µM | OVCAR-3 > 100 µM | HT-29 > 100 µM | LOX IMVI > 100 µM | SR 43.6 µM | SF-295 > 100 µM | SF-539 > 100 µM | OVCAR-5 > 100 µM | RXF 393 85.3 µM | SK-MEL-28 > 100 µM | NCI/ADR-RES > 100 µM | K562 72.9 µM | HCT-116 > 100 µM | M14 > 100 µM | NCI-H226 64.1 µM | Malme-3M > 100 µM | HOP-92 > 100 µM | Hs-578T > 100 µM | RPMI-8226 43.9 µM | UACC-257 > 100 µM | CAKI-1 > 100 µM | MDA-N > 100 µM | MDA-MB-435 > 100 µM | A498 > 100 µM | IGROV-1 > 100 µM

CCSCCCN(CCCSCC)CCCSCC
> 100 µM: HCT-15
inactive: SK-MEL-5 > 100 µM | NCI-H460 > 100 µM | UACC-62 > 100 µM | CCRF-CEM > 100 µM | KM12 > 100 µM | SF-268 > 100 µM | A549 > 100 µM | SW-620 > 100 µM | SNB-19 > 100 µM | HCC 2998 > 100 µM | MDA-MB-231 > 100 µM | DU-145 > 100 µM | NCI-H522 45.8 µM | NCI-H23 > 100 µM | 786-0 > 100 µM | PC-3 > 100 µM | COLO 205 > 100 µM | OVCAR-8 > 100 µM | MCF7 > 100 µM | UO-31 > 100 µM | HL-60 80.9 µM | SK-OV-3 > 100 µM | SN12C > 100 µM | BT-549 > 100 µM | HOP-62 > 100 µM | MOLT-4 > 100 µM | OVCAR-4 > 100 µM | OVCAR-3 > 100 µM | HT-29 > 100 µM | LOX IMVI > 100 µM | SR > 100 µM | SF-295 > 100 µM | SF-539 > 100 µM | T47D > 100 µM | OVCAR-5 > 100 µM | U-251 > 100 µM | SK-MEL-28 > 100 µM | NCI/ADR-RES > 100 µM | K562 > 100 µM | HCT-116 > 100 µM | M14 > 100 µM | HOP-92 5.16 µM | UACC-257 > 100 µM | MDA-N > 100 µM | MDA-MB-435 > 100 µM | IGROV-1 88.3 µM | SNB-75 > 100 µM

CCOc1cc(CC[N+](C)(C)C)c2c(ccc3ccc(OC)c(OC)c32)c1OC
inactive: SK-MEL-5 63 µM | UACC-62 > 100 µM | SF-268 > 100 µM | A549 > 100 µM | SW-620 > 100 µM | SNB-19 > 100 µM | HCC 2998 > 100 µM | MDA-MB-231 > 100 µM | DU-145 > 100 µM | NCI-H522 > 100 µM | NCI-H23 > 10 µM | 786-0 > 100 µM | PC-3 > 100 µM | COLO 205 > 100 µM | OVCAR-8 > 100 µM | UO-31 > 100 µM | SK-OV-3 > 100 µM | SN12C > 100 µM | BT-549 19.4 µM | EKVX > 100 µM | MOLT-4 > 10 µM | ACHN > 100 µM | OVCAR-4 > 10 µM | OVCAR-3 53.3 µM | HT-29 > 100 µM | SR > 100 µM | SF-295 > 100 µM | T47D > 100 µM | RXF 393 > 10 µM | U-251 > 100 µM | SK-MEL-28 > 100 µM | NCI/ADR-RES > 100 µM | HCT-116 > 100 µM | M14 > 100 µM | Malme-3M > 100 µM | HOP-92 > 100 µM | RPMI-8226 16.8 µM | CAKI-1 > 100 µM | MDA-N > 100 µM | MDA-MB-435 > 100 µM | IGROV-1 > 100 µM | SNB-75 > 100 µM

C[S+](C)CC(=O)c1ccc2c(c1)Sc1ccccc1O2
active: SK-MEL-5 1.08 µM | KM12 0.955 µM | NCI-H522 1.09 µM | PC-3 1.04 µM | COLO 205 1.02 µM | SF-539 0.69 µM | M14 0.755 µM | MDA-MB-435 0.923 µM
inactive: NCI-H460 5.3 µM | UACC-62 3.91 µM | CCRF-CEM 5.27 µM | SF-268 5.43 µM | A549 5.68 µM | SW-620 2.33 µM | SNB-19 5.51 µM | HCC 2998 2.64 µM | TK-10 5.38 µM | MDA-MB-231 7.06 µM | DU-145 4.1 µM | NCI-H23 3.49 µM | 786-0 2.72 µM | OVCAR-8 3.39 µM | MCF7 1.7 µM | UO-31 3.08 µM | HL-60 1.61 µM | SK-OV-3 6.04 µM | SN12C 6.34 µM | BT-549 2.18 µM | HOP-62 13.2 µM | EKVX 3.44 µM | MOLT-4 3.29 µM | ACHN 5.78 µM | OVCAR-4 3.44 µM | OVCAR-3 2.4 µM | HT-29 1.17 µM | LOX IMVI 3.18 µM | SR 1.43 µM | SF-295 5.25 µM | T47D 9.57 µM | OVCAR-5 5.87 µM | RXF 393 3.78 µM | U-251 7.19 µM | SK-MEL-28 7.89 µM | NCI/ADR-RES 6.55 µM | K562 3.21 µM | HCT-116 1.32 µM | NCI-H226 5.16 µM | Malme-3M 3.45 µM | HOP-92 3.74 µM | Hs-578T 3.45 µM | RPMI-8226 2.59 µM | UACC-257 4.72 µM | SK-MEL-2 3.4 µM | CAKI-1 4.39 µM | A498 8.41 µM | IGROV-1 2.75 µM | SNB-75 2.7 µM
2.47 µM: HCT-15
